Measured values: the Kinase Knowledgebase extract (Sharma et al. 2016)

Tests used:
Experiment in all cases: Enzyme Assay
PIK3CG (human) = PIK3CG (human) (UniProt P48736)
PIK3CD (Human) = PIK3CD (Human) (UniProt O00329)
PIK3CB (Human) = PIK3CB (Human) (UniProt P42338)
Sequence of PIK3CB (Human) (P42338 whole entry, looked up): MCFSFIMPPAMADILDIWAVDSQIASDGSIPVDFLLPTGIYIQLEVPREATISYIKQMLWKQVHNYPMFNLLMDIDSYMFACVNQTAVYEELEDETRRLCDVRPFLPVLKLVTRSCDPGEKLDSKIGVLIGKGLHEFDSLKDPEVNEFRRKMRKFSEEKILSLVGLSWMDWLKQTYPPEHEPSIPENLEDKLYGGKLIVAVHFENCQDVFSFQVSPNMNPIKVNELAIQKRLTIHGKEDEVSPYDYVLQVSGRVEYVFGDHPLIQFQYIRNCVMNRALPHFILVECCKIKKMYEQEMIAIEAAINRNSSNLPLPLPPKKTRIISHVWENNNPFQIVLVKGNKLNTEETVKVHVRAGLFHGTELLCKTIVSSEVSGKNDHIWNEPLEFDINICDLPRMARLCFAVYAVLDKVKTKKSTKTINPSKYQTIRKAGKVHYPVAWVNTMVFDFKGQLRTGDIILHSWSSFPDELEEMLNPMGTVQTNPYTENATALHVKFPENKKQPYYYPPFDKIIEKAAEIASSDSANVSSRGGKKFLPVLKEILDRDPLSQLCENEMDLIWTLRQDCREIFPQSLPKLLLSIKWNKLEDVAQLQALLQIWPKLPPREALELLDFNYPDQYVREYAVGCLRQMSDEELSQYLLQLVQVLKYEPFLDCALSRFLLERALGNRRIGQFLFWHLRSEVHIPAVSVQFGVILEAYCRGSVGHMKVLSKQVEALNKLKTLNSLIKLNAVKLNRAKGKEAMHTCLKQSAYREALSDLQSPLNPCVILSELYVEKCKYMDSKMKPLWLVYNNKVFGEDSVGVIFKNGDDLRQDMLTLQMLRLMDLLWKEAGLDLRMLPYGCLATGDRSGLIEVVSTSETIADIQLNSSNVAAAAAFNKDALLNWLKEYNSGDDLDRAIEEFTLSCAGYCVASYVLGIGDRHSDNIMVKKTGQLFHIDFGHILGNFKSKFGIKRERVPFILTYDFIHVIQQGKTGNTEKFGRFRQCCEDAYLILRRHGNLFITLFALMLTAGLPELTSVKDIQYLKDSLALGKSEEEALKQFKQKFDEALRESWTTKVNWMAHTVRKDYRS

Sequence of PIK3CG (human) (P48736 whole entry, looked up): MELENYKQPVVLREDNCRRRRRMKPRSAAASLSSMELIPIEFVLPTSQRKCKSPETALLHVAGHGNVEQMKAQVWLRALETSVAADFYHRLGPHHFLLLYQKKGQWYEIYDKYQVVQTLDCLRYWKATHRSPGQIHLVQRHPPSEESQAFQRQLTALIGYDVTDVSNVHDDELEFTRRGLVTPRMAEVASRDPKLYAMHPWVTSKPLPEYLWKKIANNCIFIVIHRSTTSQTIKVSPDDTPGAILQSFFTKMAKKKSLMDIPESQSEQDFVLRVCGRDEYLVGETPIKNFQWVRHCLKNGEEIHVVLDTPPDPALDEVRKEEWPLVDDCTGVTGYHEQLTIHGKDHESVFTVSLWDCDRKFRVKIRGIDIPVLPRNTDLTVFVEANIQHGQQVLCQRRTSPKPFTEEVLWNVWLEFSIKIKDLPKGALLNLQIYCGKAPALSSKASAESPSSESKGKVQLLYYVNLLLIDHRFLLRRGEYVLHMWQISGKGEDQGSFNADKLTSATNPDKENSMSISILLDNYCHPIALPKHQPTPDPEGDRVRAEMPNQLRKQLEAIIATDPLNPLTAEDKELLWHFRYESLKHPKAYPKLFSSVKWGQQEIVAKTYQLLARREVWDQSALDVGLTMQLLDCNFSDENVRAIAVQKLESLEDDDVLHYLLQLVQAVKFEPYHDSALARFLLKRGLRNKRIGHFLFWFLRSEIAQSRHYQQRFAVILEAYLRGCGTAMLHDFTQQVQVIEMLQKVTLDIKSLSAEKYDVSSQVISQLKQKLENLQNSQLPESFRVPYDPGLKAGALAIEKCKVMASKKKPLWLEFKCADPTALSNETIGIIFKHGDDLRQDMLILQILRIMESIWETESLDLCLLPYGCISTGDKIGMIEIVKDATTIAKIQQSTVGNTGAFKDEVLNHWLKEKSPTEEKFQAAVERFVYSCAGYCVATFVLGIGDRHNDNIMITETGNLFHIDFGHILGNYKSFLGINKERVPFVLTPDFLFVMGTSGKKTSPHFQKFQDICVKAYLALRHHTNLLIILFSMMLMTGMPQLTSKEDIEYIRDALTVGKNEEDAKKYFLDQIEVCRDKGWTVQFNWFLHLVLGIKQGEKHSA
Sequence of PIK3CD (Human) (O00329 whole entry, looked up): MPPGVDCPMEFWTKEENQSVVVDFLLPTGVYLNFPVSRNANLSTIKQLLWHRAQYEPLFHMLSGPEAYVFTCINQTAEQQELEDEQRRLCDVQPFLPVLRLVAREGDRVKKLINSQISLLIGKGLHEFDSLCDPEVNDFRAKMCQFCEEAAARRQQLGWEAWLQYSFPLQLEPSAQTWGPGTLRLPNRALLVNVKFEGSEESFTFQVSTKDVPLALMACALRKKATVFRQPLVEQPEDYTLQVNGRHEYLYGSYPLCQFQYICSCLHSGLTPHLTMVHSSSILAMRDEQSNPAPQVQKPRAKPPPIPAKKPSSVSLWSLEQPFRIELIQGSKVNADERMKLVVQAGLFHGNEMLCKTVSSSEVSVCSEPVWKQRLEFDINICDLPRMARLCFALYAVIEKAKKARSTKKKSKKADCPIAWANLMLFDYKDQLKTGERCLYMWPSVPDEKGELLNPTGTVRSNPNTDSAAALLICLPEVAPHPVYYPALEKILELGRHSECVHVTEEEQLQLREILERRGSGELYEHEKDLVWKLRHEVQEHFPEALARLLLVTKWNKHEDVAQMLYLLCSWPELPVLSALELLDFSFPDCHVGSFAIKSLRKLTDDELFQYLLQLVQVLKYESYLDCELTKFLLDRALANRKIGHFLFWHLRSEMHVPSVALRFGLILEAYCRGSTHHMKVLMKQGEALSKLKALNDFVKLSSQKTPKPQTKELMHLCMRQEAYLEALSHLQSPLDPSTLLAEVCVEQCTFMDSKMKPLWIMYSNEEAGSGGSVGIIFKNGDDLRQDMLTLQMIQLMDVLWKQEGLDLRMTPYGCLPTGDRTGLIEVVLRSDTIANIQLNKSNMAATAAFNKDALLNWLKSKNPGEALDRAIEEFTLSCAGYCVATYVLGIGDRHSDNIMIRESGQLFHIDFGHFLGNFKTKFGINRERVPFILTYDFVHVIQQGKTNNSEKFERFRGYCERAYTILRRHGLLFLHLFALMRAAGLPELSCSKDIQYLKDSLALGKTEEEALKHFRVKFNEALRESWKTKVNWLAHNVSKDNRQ

Compound | IC50 (PIK3CG (human)) [µM] | IC50 (PIK3CD (Human)) [µM] | IC50 (PIK3CB (Human)) [µM]
C[C@H](Nc1nc(N)nc(N)c1C#N)c1nc2ccc(Cl)cc2c(=O)n1-c1cc[nH]n1 | 9.3 | 0.14 | 
CC(C)[C@H](Nc1nc(N)nc(N)c1Cl)c1nc2cccc(Cl)c2c(=O)n1-c1cc[nH]n1 | 10 |  | 
CC(C)Cc1cc(-n2c([C@H](C)Nc3ncnc(N)c3C#N)nc3cccc(Cl)c3c2=O)n[nH]1 | > 10 |  | 
Nc1nc(N)c(Cl)c(N[C@H](c2nc3cccc(Cl)c3c(=O)n2-c2cc[nH]n2)C2CCC2)n1 | > 10 |  | 
C[C@H](Nc1nc(N)nc(N)c1C#N)c1nc2c(C(F)F)cccc2c(=O)n1-c1cc[nH]n1 | > 10 | 0.009 | 0.004
C[C@H](Nc1nc(N)nc(C(F)F)c1Cl)c1nc2cc(F)cc(F)c2c(=O)n1-c1cc[nH]n1 |  |  | > 10
C[C@H](Nc1nc(N)nc(C(F)F)c1Cl)c1nc2c(F)c(F)ccc2c(=O)n1-c1cc[nH]n1 |  |  | > 10
CC[C@H](Nc1ncnc2[nH]cc(F)c12)c1nc2c(Cl)ccc(Cl)c2c(=O)n1-c1cc[nH]n1 |  | 0.003 | 
Cc1c[nH]nc1-n1c([C@@H](NC2=NC(N)=NC3=NN=C(Br)C32)C2CC2)nc2cccc(Cl)c2c1=O (stereo partly drawn) | > 10 |  | 
Nc1nc(N)c(Cl)c(N[C@H](c2nc3c(Cl)cc(F)cc3c(=O)n2-c2cc[nH]n2)C2CC2)n1 | > 10 |  | 
